Measurements published in PMC10578352, “Identification of a Protein Arginine Methyltransferase 7 (PRMT7)/Protein Arginine Methyltransferase 9 (PRMT9) Inhibitor” (Journal of Medicinal Chemistry, 2023).

molecular target: T1, GST-HsPRMT7 (Homo sapiens, UniProt Q9NVM4); assay: Radioisotope-based assay (SDS-PAGE, fluorography, densitometry), HsPRMT7; type: biochemical; conditions: substrate HsH2B, 15 °C, read-out: % HsPRMT7 residual activity
T1 construct: made in house; host or cells: E. coli
T1 sequence (Q9NVM4 1-692): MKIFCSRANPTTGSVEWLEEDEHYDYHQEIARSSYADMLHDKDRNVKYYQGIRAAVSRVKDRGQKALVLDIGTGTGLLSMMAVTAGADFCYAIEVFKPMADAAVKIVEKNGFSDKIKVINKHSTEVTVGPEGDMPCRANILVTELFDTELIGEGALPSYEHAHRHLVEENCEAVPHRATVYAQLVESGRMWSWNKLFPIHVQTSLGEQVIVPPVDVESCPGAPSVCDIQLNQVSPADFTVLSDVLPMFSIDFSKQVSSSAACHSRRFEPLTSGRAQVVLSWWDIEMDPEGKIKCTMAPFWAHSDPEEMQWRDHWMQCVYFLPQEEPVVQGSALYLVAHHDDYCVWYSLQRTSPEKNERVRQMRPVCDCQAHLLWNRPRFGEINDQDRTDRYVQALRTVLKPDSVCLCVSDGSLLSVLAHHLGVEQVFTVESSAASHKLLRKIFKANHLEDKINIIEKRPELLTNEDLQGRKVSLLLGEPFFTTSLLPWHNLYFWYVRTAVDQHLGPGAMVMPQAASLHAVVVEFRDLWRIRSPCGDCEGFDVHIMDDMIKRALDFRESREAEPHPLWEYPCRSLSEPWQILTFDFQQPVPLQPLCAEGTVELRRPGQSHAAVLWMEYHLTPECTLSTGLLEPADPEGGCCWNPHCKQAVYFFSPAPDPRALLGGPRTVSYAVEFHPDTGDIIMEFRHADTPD
Description: Based on these outcomes, we resolved to explore the effect on the capability to inhibit PRMT9 enzymatic activity of further reduction of the distance between the pharmacophoric moieties. […] After the experiment was repeated with 100, 250, and 500 μM concentrations of each inhibitor, half inhibition was observed only at a concentration of roughly 250 μM (Figure 4d).
[…]. The experiments were performed as reported in the Experimental procedures section. GST-HsPRMT9 (a) and GST-HsPRMT7 (b) were incubated with human GST-SF3B2 (401–550) peptide or recombinant HsH2B, respectively (1 μg of enzyme, 5 μg of substrate), 0.14 μM [^3H]SAM, and the indicated concentrations of tested compounds at the corresponding optimal reaction temperature (37 °C for HsPRMT9, 15 °C for HsPRMT7). C. elegans GST-tagged enzymes PRMT9 (c) and PRMT7 (d) were incubated with GST-CeSFTB-2 (99–248) fragment or recombinant HsH2B, respectively (1 μg of enzyme, 5 μg of substrate), 0.14 μM [^3H]SAM, and the indicated concentrations of tested compounds at the corresponding optimal reaction temperature (25 °C for CePRMT9, 15 °C for CePRMT7). After SDS-PAGE, the gels were treated as previously described[48] and densitometry analysis was done using ImageJ software, and data was plotted as normalized activity to the no inhibitor controls.
Human PRMT9, C. elegans PRMT9, human PRMT7, and C. elegans PRMT7 plasmids were sequenced, expressed in E. coli as GST-fusion proteins, and purified as previously described.[48] Substrates were also sequenced and purified as described [human GST-SF3B2 (401–550);[13]C. elegans SFTB-2;[48] human histone H2B (New England Biolabs, M2505S)]. Xenopus laevis histone H2B was expressed in E. coli and purified similarly to what was previously reported by Luger et al.[72]
Reactions consisting of approximately 1 μg of enzyme (human or C. elegans GST-tagged enzymes PRMT9 and PRMT7), reacted with approximately 5 μg of substrate [for human PRMT9, human GST-SF3B2 401–550 fragment; C. elegans PRMT9 with C. elegans GST-SFTB-2 (99–248) fragment, or recombinant human histone H2B from New England Biolabs (M2505S)], were incubated for the indicated time in reaction buffer {50 mM potassium HEPES buffer, 10 mM NaCl, 1 mM dithiothreitol (DTT), pH 8.0 with 0.7 μM S-adenosyl-L-[methyl-^3H]methionine (^3H-AdoMet, PerkinElmer Life Sciences, 82.7 Ci/mmol, 0.55 mCi/mL in 10 mM H2SO4/EtOH [9:1 (v/v)])} in a final reaction volume of 60 μL. Each reaction was incubated at the corresponding optimal reaction temperature (37 °C for human PRMT9, 25 °C for C. elegans PRMT9, and 15 °C for C. elegans and human PRMT7 enzymes. MTA was dissolved in water, and a wavelength scan was taken to determine the final concentration using the extinction coefficient. The final concentrations used are indicated in the figure legends. […]. EML734, EML736, and EML709 were also dissolved in DMSO, and further dilutions were made in DMSO for the working stocks. For controls, no inhibitor reactions were created by the addition of the respective solvent (water for MTA and DMSO for EPZ015666 and EML inhibitors).
After the reaction incubations with the various concentrations of inhibitors, the reactions were quenched by adding 0.2 volume of 5× SDS sample loading buffer, and subsequently, the reactions were run on a 12.6% polyacrylamide Tris gel. To collect the radioactive signal, the gels were then treated in the same way as previously described.[48] […]

Row | remaining activity at 100 µM [%] | SMILES
1 | 0.5 | COC(=O)c1cc(O)c2cc(NC(=O)NCCCNC(=N)NC[C@H]3O[C@@H](n4cnc5c(N)ncnc54)[C@H](O)[C@@H]3O)ccc2c1 [1a]
2 | 8.27 | COC(=O)c1cc(O)c2cc(NC(=O)NCCCCNC(=N)NC[C@H]3O[C@@H](n4cnc5c(N)ncnc54)[C@H](O)[C@@H]3O)ccc2c1 [1b]
3 | 0.03 | COC(=O)c1cc(O)c2cc(NC(=O)NCCCCCNC(=N)NC[C@H]3O[C@@H](n4cnc5c(N)ncnc54)[C@H](O)[C@@H]3O)ccc2c1 [1c]
